Measurements published in publication PMC4364556, “Comparative Distribution and In Vitro Activities of the Urotensin II-Related Peptides URP1 and URP2 in Zebrafish: Evidence for Their Colocalization in Spinal Cerebrospinal Fluid-Contacting Neurons” (PLoS ONE, 2015).
Where a SMILES comes first, the peptide text is derived from it. Bridges are numbered along the chain shown (N, C = ends).

Biological target: T1, human UII receptor (hUT) (Homo sapiens, UniProt Q9UKP6)
T1 construct: expressed in transfected cells
T1 sequence (Q9UKP6 1-389): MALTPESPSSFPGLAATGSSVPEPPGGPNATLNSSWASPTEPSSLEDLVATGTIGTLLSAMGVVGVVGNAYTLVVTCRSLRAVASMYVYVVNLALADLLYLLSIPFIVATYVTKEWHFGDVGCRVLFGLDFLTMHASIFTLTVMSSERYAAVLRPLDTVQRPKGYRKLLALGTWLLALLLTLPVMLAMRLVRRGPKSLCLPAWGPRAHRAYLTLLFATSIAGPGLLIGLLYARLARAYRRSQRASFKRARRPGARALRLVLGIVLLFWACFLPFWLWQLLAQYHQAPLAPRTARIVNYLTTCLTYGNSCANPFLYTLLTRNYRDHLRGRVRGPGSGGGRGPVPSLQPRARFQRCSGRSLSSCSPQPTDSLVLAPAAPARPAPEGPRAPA
Test: Intracellular calcium mobilization assay (hUT-CHO cells)
Type: cell-based
Settings: for EC50: agonist, CHO cells stably transfected with human UT, Fluo-4 AM, 37°C, fluorescence 485/525 nm, 180 sec, peptides 10^-12 to 10^-6 M, peak fluorescence, four-parameter logistic, mean ± SEM of 7–13 independent experiments, read-out: pEC50, intracellular calcium mobilization (converted); for comparison of potency of URP1 and URP2 to activate the hUT: URP1 vs URP2; for times less potent than hUII to mobilize intracellular calcium: compared with hUII pEC50 = […]; for efficacy, increase in intracellular calcium: percentages of the baseline (baseline normalized to 100%), Fluo-4 AM peak fluorescence, similar to efficacies evoked by hUII and mURP, approximate ('around')
Procedure: CHO cells stably transfected with the human UII receptor (hUT-CHO) (Chatenet et al. 2004) were plated at a density of 4 x 10^4 cells/well in flat clear bottom black 96-well plates. Measures of intracellular calcium mobilization were performed as previously described (Dubessy et al. 2008) with slight modifications. Briefly, after 24 h in culture, cells were incubated for 1 h in a humidified incubator (37°C, 5% CO2) with 2 μM Fluo-4 acetoxymethyl ester (AM) calcium dye (Life Technologies) in Hank’s Buffer Saline Solution (HBSS; Life Technologies) buffered with 5 mM HEPES and supplemented with 2.5 mM probenecid (Sigma-Aldrich, Saint-Quentin Fallavier, France). Cells were washed twice with HBSS/HEPES/probenecid to remove Fluo-4 AM from the incubation medium and incubated in 150 μl of the same medium at 37°C for 15 min. Fluorescence was recorded using a Flexstation 3 fluorescence plate reader system (Molecular Devices, Saint-Grégoire, France) during 180 sec with an excitation wavelength of 485 nm, an emission wavelength of 525 nm and a cutoff filter of 515 nm. After 18 sec recording in basal conditions, 50 μl of graded concentration (10^-12 to 10^-6 M) of different peptides (4-fold final concentration) was added to the incubation medium with the built-in 8 channel pipettor at a rate of 47 μl/sec to assess their agonistic activity. After subtraction of mean fluorescence background from control wells without Fluo-4 AM, baseline was normalized to 100% and fluorescence peak values were determined for each concentration of peptide. Potency (EC50) and efficacy (Emax) were calculated with the Prism 5.0 software (GraphPad Software In., La Jolla, CA, USA) using a four-parameter logistic equation to fit peak fluorescence data.
For intracellular calcium mobilization assays, results from 7–13 independent experiments were expressed as mean ± SEM of Log(EC50) and plotted with box and whiskers. The normality of each data set was verified with the Shapiro-Wilk’s test and a one-way ANOVA test followed by a Tukey’s multiple comparison test to compare Log(EC50) between each peptide. Differences were considered significant where P<0.05.

[1] = hUT-CHO cells, one-way ANOVA followed by Tukey's test on Log(EC50)

Row | SMILES | EC50 [nM] | comparison of potency of URP1 and URP2 to activate the hUT [1] | times less potent than hUII to mobilize intracellular calcium (hUT-CHO cells) [times] | efficacy, increase in intracellular calcium (hUT-CHO cells) | potency compared with the other tested peptides (hUT-CHO cells, vs hUII, URP1 and URP2, one-way ANOVA followed by Tukey's test on Log(EC50), P<0.05)
1 | CC(C)[C@H](NC(=O)[C@@H]1CSSC[C@H](NC(=O)[C@H](C)N)C(=O)N[C@@H](Cc2ccccc2)C(=O)N[C@@H](Cc2c[nH]c3ccccc23)C(=O)N[C@@H](CCCCN)C(=O)N[C@@H](Cc2ccc(O)cc2)C(=O)N1)C(=O)N[C@H](C(=O)N[C@@H](CC(N)=O)C(=O)O)[C@@H](C)O [URP1] (H-ACFWKYCVTN-OH; disulfide 2-7) | 10.2 | equipotent to activate the hUT | 28 | 200–250% | –
2 | CC(C)[C@H](N)C(=O)N[C@H]1CSSC[C@@H](C(=O)N[C@@H](CO)C(=O)N[C@@H](CCC(N)=O)C(=O)N[C@@H](CC(N)=O)C(=O)O)NC(=O)[C@H](Cc2ccc(O)cc2)NC(=O)[C@H](CCCCN)NC(=O)[C@H](Cc2c[nH]c3ccccc23)NC(=O)[C@H](Cc2ccccc2)NC1=O [URP2] (H-VCFWKYCSQN-OH; disulfide 2-7) | 30.2 | equipotent to activate the hUT | 83 | 200–250% | –
3 | CC(C)[C@H](NC(=O)[C@@H]1CSSC[C@H](NC(=O)[C@H](C)N)C(=O)N[C@@H](Cc2ccccc2)C(=O)N[C@@H](Cc2c[nH]c3ccccc23)C(=O)N[C@@H](CCCCN)C(=O)N[C@@H](Cc2ccc(O)cc2)C(=O)N1)C(=O)O [mURP, reference compound] | 2.45 | – | – | – | intermediate potency
